Test results published in patent US10316100B2, “Treating basal-like genotype cancers” (The UAB Research Foundation, priority 2009, dated 2019).

Key:
cIAP2 = cIAP2 (Homo sapiens, UniProt Q13489); conditions: cited from earlier work
[1] = system: human pancreatic cancer cells, S013 and S2VP10; assay: Effect of AT-406 on TRA-8-induced apoptosis of pancreatic cancer cells; assay type: cell-based; conditions: 10 μM AT-406 alone
Source text: To determine whether AT-406 is able to overcome DR5-apoptosis resistance of pancreatic cancer cells, the effect of AT-406 on TRA-8-induced apoptosis was examined for two lines of human pancreatic cancer cells, S013 and S2VP10, both of which are highly resistant to TRA-8-mediated apoptosis. […] To determine the effect of AT-406 on the DR5/DDX3/cIAP1 protein complex, the amount of cIAP1 was examined by DR5-coIP. […] This was not due to the reduction of DR5-associated DDX3 as DDX3 was equally co-immunoprecipitated with DR5.

[2] = system: IAP proteins associated with DDX3; assay: IAP proteins in the DDX3 complex, breast cancer cell lines (DDX3 immunoprecipitation, 3H4 blot); assay type: cell-based, human; conditions: panel of breast cancer cell lines; 1000 ng/ml TRA-8, 10 uM AT-406, overnight
Method: FIGS. 10A, 10B, and 10C show the in vitro effect of AT-406 on IAPs in breast cancer cell lines. Human breast cancer cell lines (MB436 and 2LMP (FIG. 10A), SUM159 and SUM149 (FIG. 10B), BT474 and MB468 (FIG. 10C) were treated with control medium (lane 1) or 1000 ng/ml TRA-8 (lane 2), or 10 uM AT-406 (lane 3) or both (lane 4) overnight. Cell lysates from treated cells were immunoprecipitated with an anti-DDX3 antibody (clone 3E4). The precipitated proteins were western blotted and the IAP proteins were detected by 3H4 antibody.
Effect of AT-406 on expression of IAP proteins in the DDX3 complex was analyzed in a panel of breast cancer cell lines including triple negative and non-triple negative lines. As previously shown, four triple negative breast cancer lines, […], 2LMP (FIG. 10A), SUM 159, and SUM 149 (FIG. 10B) expressed lower levels of cIAP1 or cIAP2 protein when co-immunoprecipitated with DDX3, compared to two non-triple negative lines, BT474 and MB468 (FIG. 10C), which were resistant to TRA-8-mediated apoptosis.

[3] = molecular target: T1, DR5/DDX3/cIAP1 protein complex (Homo sapiens, UniProt Q13490); assay: cIAP1 in the DR5 complex by DR5-coIP, pancreatic cancer cells; assay type: cell-based; conditions: 10 uM AT-406, 1000 ng/ml TRA-8, overnight
T1 construct: endogenous in cells; host or cells: S2013 (printed S013) and S2VP10 human pancreatic cancer cells
T1 sequence (Q13490 whole entry, one chain of several): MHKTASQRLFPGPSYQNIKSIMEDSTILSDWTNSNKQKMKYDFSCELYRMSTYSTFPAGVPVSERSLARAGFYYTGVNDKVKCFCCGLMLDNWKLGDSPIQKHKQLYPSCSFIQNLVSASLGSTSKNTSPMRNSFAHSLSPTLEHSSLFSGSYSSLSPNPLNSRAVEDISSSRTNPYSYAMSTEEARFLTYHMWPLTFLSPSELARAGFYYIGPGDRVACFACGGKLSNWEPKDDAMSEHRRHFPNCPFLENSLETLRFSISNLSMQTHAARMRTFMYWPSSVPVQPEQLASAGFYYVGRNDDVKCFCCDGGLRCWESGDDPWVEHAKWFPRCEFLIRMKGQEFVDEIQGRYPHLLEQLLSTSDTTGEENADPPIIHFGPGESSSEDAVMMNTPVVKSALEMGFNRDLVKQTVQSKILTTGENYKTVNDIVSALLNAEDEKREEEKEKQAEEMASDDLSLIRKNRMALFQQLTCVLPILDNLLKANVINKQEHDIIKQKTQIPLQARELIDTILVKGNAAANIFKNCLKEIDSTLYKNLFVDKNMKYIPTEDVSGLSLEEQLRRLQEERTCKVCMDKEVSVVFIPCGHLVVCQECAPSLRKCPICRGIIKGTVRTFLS

cIAP1 = cIAP1 (Homo sapiens, UniProt Q13490); conditions: cited from earlier work
Chain of cIAP1 (Q13490 whole entry): as the sequence (Q13490 whole entry, one chain of several) above

TRAIL-mediated apoptosis = conditions: cited from earlier work
XIAP = XIAP (Homo sapiens, UniProt P98170); conditions: cited from earlier work
Chain of XIAP (P98170 whole entry): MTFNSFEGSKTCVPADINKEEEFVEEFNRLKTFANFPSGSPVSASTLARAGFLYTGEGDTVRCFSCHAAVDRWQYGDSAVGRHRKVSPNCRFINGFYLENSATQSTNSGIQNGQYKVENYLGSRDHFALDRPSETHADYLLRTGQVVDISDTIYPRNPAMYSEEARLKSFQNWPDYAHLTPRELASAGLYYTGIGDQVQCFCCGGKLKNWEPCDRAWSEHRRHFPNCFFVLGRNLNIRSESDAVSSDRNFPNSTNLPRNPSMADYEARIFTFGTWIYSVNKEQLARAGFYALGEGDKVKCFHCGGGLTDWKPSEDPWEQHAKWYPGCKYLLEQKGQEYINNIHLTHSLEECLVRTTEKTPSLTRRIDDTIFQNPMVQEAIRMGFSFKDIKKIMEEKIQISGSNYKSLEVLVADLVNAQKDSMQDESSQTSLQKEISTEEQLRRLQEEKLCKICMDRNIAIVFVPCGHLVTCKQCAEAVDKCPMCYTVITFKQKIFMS

IAP proteins = assay: Western blot of IAP proteins in total cell lysates with 3H4 antibody, pancreatic cancer cells; assay type: cell-based, human; conditions: S2013 and S2VP10; 1000 ng/ml TRA-8, 10 uM AT-406, overnight
[4] = system: SUM159 orthotopic basal B xenografts; assay: In vivo efficacy against SUM159 orthotopic xenografts; parameters: species or system athymic nude mice; conditions: untreated 17.9 days
Method: (§1) The arrows indicate the interval during which antibody was administered (n=9-10 mice/group).
(§2) Treatments were initiated once tumors were well-established, with tumor diameters of about 6 mm, and tumor size was monitored over time.

[5] = system: 2LMP orthotopic basal B xenografts; assay: In vivo efficacy against 2LMP orthotopic xenografts; parameters: species or system athymic nude mice; conditions: 2LMP xenografts; untreated 8.6 days
Method: as §1, §2

[6] = system: triple negative breast cell (TNBC) cell lines (basal); assay: TRA-8 cytotoxicity against the panel of TNBC cell lines; assay type: cell-based, human; conditions: cell lines of basal B subtype (FIG. 1)
DDX3 = assay: siRNA mediated knockdown of DDX3, Western blot in TRA-8-resistant MDA231 cells; assay type: cell-based, human; conditions: among five RNAi constructs
Source text: Design RNAi: an online design tool, BLOCK-iT RNAi Designer (Invitrogen; Carlsbad, Calif.), was used to identify RNAi targets for DDX3. Five targeted siRNA sequences were selected from the top 10 highest scoring RNAi targets (see Table 1).
They were then cloned into the BLOCK-iT U6 entry vector. The siRNA is driven by the U6 promoter and can be transiently expressed in most dividing or nondividing mammalian cell types. Resistant cells were transfected with RNAi used LIPOFECTAMINE 2000 (Invitrogen; Carlsbad, Calif.) for the RNAi response. The decreased DDX3 expression was determined by Western blot analysis using anti-DDX3 antibody 36 hours after transfection. […]
To study the role of DDX3 in DR5 signaling, the importance of endogenous DDX3 in TRA-8-induced apoptosis was examined. […] TRA-8-resistant MDA231 cells were transfected with five RNAi constructs, and protein expression levels of DDX3 were determined by Western blot analysis using monoclonal anti-DDX3 antibody 48 hours post-transfection. […] To further determine the causal role of DDX3 in DR5-mediated apoptosis, DDX3 expression was reduced in a panel of tumor cells and their susceptibility to TRA-8-induced apoptosis analyzed. […]

Chain of cIAP2 (Q13489 whole entry): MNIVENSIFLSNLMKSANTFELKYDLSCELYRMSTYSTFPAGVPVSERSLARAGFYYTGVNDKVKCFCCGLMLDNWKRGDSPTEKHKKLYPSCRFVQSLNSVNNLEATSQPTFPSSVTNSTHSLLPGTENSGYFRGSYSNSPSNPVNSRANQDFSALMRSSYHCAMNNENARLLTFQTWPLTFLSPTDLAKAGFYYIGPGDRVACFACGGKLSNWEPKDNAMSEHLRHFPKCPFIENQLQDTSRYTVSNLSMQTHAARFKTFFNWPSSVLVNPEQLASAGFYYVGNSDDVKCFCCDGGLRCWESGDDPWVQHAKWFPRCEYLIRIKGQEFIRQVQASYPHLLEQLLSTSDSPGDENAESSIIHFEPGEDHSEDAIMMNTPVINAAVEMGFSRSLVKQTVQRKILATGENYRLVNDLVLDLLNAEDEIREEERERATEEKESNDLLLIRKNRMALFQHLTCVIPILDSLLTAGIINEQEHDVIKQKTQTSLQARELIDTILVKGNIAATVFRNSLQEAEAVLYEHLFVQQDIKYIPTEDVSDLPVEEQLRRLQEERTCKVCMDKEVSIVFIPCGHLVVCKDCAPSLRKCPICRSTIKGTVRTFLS

CN[C@@H](C)C(=O)N[C@H]1CN(C(=O)CC(C)C)CC[C@H]2CC[C@@H](C(=O)NC(c3ccccc3)c3ccccc3)N2C1=O [AT-406]
affinity (cIAP2): low nanomolar affinity | cell death [1]: did not induce significant cell death | levels of the IAP proteins associated with DDX3 [2]: significantly reduced | amount of cIAP1 in the DR5 complex [3]: dramatic reduction | affinity (cIAP1): low nanomolar affinity | effect on TRAIL-mediated apoptosis (TRAIL-mediated apoptosis): synergistically enhances | affinity (XIAP): low nanomolar affinity | total IAP protein expression (IAP proteins): did not alter

COc1cccc2c1C(=O)c1c(O)c3c(c(O)c1C2=O)C[C@@](O)(C(=O)CO)C[C@@H]3O[C@H]1C[C@H](N)[C@H](O)[C@H](C)O1 [Adriamycin]
mean tumor doubling time [4]: 41.9 days | tumor doubling time [5]: 51.1 days

TRAIL: Recombinant soluble TRAIL purchased from Alexis Biochemicals
cytotoxicity compared with TRA-8 [6]: Equivalent cytotoxicity

B1: construct #2: DDX3 RNAi construct 562-582, SEQ ID NO: 6 and 7 (nucleic acid)
chain 1: CACCGGAGAAATTATCATGGGAAACCGAAGTTTCCCATGATAATTTCTCC
chain 2: AAAAGGAGAAATTATCATGGGAAACTTCGGTTTCCCATGATAATTTCTCC
modifications: expressed or natural sequence
rank as inhibitor of DDX3 expression (DDX3): most effective
